Source: PMC10619691, “Effect of cyclic substituents on the anti-cancer activity and DNA interaction of ruthenium(II) bis-phenanthroline dipyridoquinoline” (Frontiers in Molecular Biosciences, 2023)

Legend:
DU145 prostate cancer = assay: sulphorhodamine B (SRB) cytotoxicity assay; type: cell-based, human; details: 72 h incubation, mean ± SEM
Protocol: (§1) The cytotoxicity profile of the ruthenium complexes […]-572, and POW-12A was assessed in various cancer cell lines, namely, human cervical cancer HeLa, prostate cancer cell line DU145, breast cancer cell line MDAMB231MB231, ovarian cancer cell line A2780, and cisplatin-resistant ovarian cancer cell line A2780-CP70, using the preferred screen of the National Cancer Institute, the sulphorhodamine (SRB) dye assay, and the trypan blue cell viability assay ([Skehan et al., 1990]; [Houghton et al., 2007]; [Strober, 2001]). To determine their selective toxicity profile, these complexes were also tested in a normal prostate cell line (PTN1A). From the similarity in chemical structures of the compounds, we deduced that a structure-activity relationship study will help elucidate key properties involved in the cytotoxic activity of this class of metal complexes. The sulphorhodamine B (SRB) assay was used to evaluate the cytotoxicity of each cancer line after treating them with the metal complexes in line with the previously established protocol ([Skehan et al., 1990]). A cell density of 3 × 10^4 cells/mL was treated with various concentrations (3, 10, 30, 50, and 100 μM) of each ruthenium complex by 1:200 dilutions of stock solutions (in DMSO) in culture media, using DMSO as a control. Then, 100 μL of the cell-drug suspension was added to the respective wells of a 96-well plate and incubated at 37°C for 72 h in a CO2-containing incubator. Following this, the cells were fixed using 25 ul of Carnoy's solution and left in the fridge (4°C) for 1 h. The plates were then rinsed with running water and tapped on paper to remove dead cells. The cells were then stained with 100 μL of sulphorhodamine B dye and left for 30 min, after which the dye was washed off using 1% acetic acid, and the plate was left to dry in the oven (60°C). The stained cells were then treated with 100 μL of Tris base (10 mM, pH 10) to solubilize the dye stain. Finally, the plates were analyzed using an Omega plate reader. Each assay was conducted in triplicate. % Cell response=Average of treated cells / Average of control cells x 100.

HeLa cervical cancer = assay: sulphorhodamine B (SRB) cytotoxicity assay; type: cell-based, human; details: 72 h incubation, mean ± SEM
Protocol: as §1

A2780 ovarian cancer = assay: sulphorhodamine B (SRB) cytotoxicity assay; type: cell-based, human; details: SRB assay, 72 h incubation; mean ± SEM
Protocol: as §1

PNT1A normal prostate = assay: sulphorhodamine B (SRB) cytotoxicity assay; type: cell-based, human; details: SRB assay, 72 h incubation; mean ± SEM
Protocol: as §1

[1] = tested on: A280-CP70 cisplatin-resistant ovarian cancer; assay: sulphorhodamine B (SRB) cytotoxicity assay; type: cell-based, human; details: for IC50: SRB assay, 72 h incubation, mean ± SEM
Protocol: as §1

MDA-MB-231 (TNBC) = assay: sulphorhodamine B (SRB) cytotoxicity assay; type: cell-based, human; details: 72 h incubation, mean ± SEM
Protocol: as §1

HeLa cells [2] = assay: Annexin V apoptosis assay; type: cell-based, human
Protocol: To further analyze the cytotoxicity mechanisms, annexin V was used to determine whether VNK-572/cisplatin exerts an anti-cancer activity through apoptosis. The Annexin V assay was performed following the established procedure. The steps included treating the cells with the complex for 24, 48, and 72 h in 6-well plates and incubating at 37°C. The cells were then rinsed with PBS, trypsinized, and neutralized using culture media. The cells were then spun in the centrifuge at 2500 RPM for 3 min, and the supernatant was discarded. The cell pellet was then washed first with PBS and then with ×1 binding buffer. The cells were then suspended in approximately 1 mL of binding buffer (1–5 million cells), and approximately 100 ul of this suspension was stained with 5 μL of annexin V-APC dye for 15 min. The cells were then washed with binding buffer and resuspended in 200 μL of binding buffer before being stained with 5 ul of propidium iodide. The cells were then analyzed using a flow cytometer within 4 h.

various cell lines = assay: epi-fluorescence nuclear staining (nuclear morphology); type: cell-based; details: 72 h treatment, DAPI staining; cisplatin at 5 μM
Protocol: To assess the nuclear morphological changes caused by ruthenium complexes on the cell lines, the cells were stained using 4′,6-diamidino-2-phenylindole DAPI dye and analyzed under an EVOS epi-fluorescence microscope at a magnification of ×60 ([Lewandowska et al., 2013]). The protocol involves treating the cells with the complexes, culturing them in 6-well plates, and incubating them at 37°C for 72 h. The cells were then rinsed with PBS, trypsinized, and neutralized using culture media. The cells were then spun in a centrifuge at 2500 RPM for 3 min, and the supernatant was discarded. The cell pellet was then fixed with 15 μL of Carnoy’s solution, resuspended, and spread on a microscope slide. When the cells were dried, 2–3 drops of DAPI were dropped on the smear in the dark and covered with a slip. The slides were then viewed under the epi-fluorescence microscope, and the nuclei were characterized qualitatively. A total of 30 cells per slide were counted, and the number of cells with various nuclear morphologies was recorded. Cells were then classed as normal, chromatin-condensed, swollen, nuclear-condensed, and nuclear-fragmented cells based on their nuclear morphology.

HeLa cells [3] = assay: cell cycle analysis; type: cell-based, human
Protocol: (§2) The cell cycle of cervical HeLa and prostate DU145 cancer cells was studied after treatment with VNK-572 and cisplatin, respectively (Figure 3). VNK-572 and cisplatin both reduced the G2 population after 72 h compared to control (e.g., 16%–11% in Hela (p = 0.06) and from 17% to 2% in the DU145 cell line (p = 0.003) for VNK-572) (Figure 3A). […] The DU145 cells saw a decrease in both phases following 72 h of treatment—from 68% to 40% and from 11% to 5% for the G1 and S phases, respectively (Figure 3A).

DU145 cells = assay: cell cycle analysis; type: cell-based, human; details: DU145, after 72 h; control 1%
Protocol: as §2

[4] = partition coefficient (log P), shake-flask method; type: physicochemical; details: phosphate buffered saline (pH 7.4) / 1-octanol
Text: The role of lipophilicity in the activity of ruthenium (II) polypyridyl complexes is one that has been extensively reported ([Notaro and Gasser, 2017]). […] Based on this, we carried out a partition coefficient (log P) test using a shake-flask method to determine whether the marginal structural differences between VNK-754, VNK-572, and POW-12A affect their lipophilicity and to examine whether such a difference in lipophilicity confers any advantage to their anti-cancer activity. The log P results, as presented in Table 2, clearly show VNK-572 (0.014) and POW-12A (0.077) to be more lipophilic than VNK-754 (−0.874). […] Thus, along with varied DNA intercalating properties, this explains, in part, why there are appreciable differences in the cytotoxic effects of VNK572 and POW12A compared to VNK-754, even though they are generally similar in structure. For example, VNK-572 with an additional benzene ring can penetrate the bi-lipid-layered cell membrane better and achieve higher cellular and nuclear concentrations than VNK-754, producing a greater anti-tumor effect.
To study the lipophilicity of our complexes, we used the shake-flask method at 25.0 °C ± 0.1°C in line with the previously reported protocol ([Dubey et al., 2017]). Equal volumes of the aqueous phase (phosphate buffered saline, pH 7.4) and the 1-octanol phase were pre-saturated with each other overnight. A known amount of the complexes (respectively) was added to the aqueous phase, ensuring our final concentration was within the range of UV spectroscopic analysis; then, an equal volume of the pre-saturated […] phase was added. Both phases were then mixed in a conical flask and left shaking on a thermostatic shaker at a speed of 100 rpm overnight at room temperature. […] Considering that lipophilic compounds will partition into the octanol phase, the concentration of the complexes left in the aqueous phase was analyzed, respectively, by UV spectroscopy; then, the Log P value was calculated: Logp = Log10 ([solute] un-ionized octanol/[solute] un-ionized water).

[5] = tested on: RF I φX174 supercoiled circular DNA; assay: supercoiled DNA unwinding by atomic force microscopy; type: binding; details: AFM; P/D = 14 for POW-12A and VNK-572, P/D = 5 for VNK-754
Protocol: FIGURE 7 AFM height images RF I φX174 on a magnesium-soaked mica surface over an area of 2 µm. Samples with the ruthenium complex had solution mixing ratios of P/D = 14 for POW-12A and VNK-572; and of P/D = 5 VNK-754.
Samples for atomic force microscopy (AFM) were prepared on mica crystals cut into squares of approximately 1 cm^2. These squares were stuck with double-sided tape to a 15-mm diameter metal disc. Before sample preparation, Cellotape was used to remove the top layer of the mica crystal, giving a freshly cleaved surface layer on which the sample is to be deposited. Mica was soaked in a 0.1 M solution of MgCl2 for 5 min and blown dry, and Mg^2+ was used to help DNA (negatively charged) adhere to the negatively charged surface of the mica. For solutions containing DNA and POW-12A or VNK-572, a P/D value of 14 was used. For the solution containing DNA and VNK-754, a P/D value of 5 was used. Then, 2 μL of the solution was pipetted onto the mica surface and left for 10 min until the solvent had evaporated, leaving the DNA adhered to the surface. To remove excess salt, each sample was washed three times with 10 µL nanopure water, drying with nitrogen after each wash. AFM was conducted using a Bruker Multi-mode 2 atomic force microscope operated with a NanoScope V controller. ScanAsyst-AIR AFM tips were purchased from Bruker. Scans were run in tapping mode using ScanAsyst, measuring height, peak force error, and phase. The spring constant was adjusted to the spring constant of the tip, which is 0.4 N m^−1 for ScanAsyst-AIR tips; feedback parameters were set automatically by ScanAsyst Auto. Scans were run over 2 μm^2 areas with 512 lines. Images were prepared using NanoScope analysis software. Raw data were processed using first-order flattening and third-order plane fitting. If the background required smoothening due to large molecules on the surface, first-order flattening with a threshold of Z < 0.05 nm was used to improve the appearance of the background. […]

HeLa cells [6] = assay: cellular localization by confocal fluorescence microscopy; type: cell-based, human; details: 50 μM, 2 h incubation, co-localization with DAPI
Protocol: This was further confirmed by the co-localization of these complexes with a nuclear counterstain (DAPI) (Figure 2).
Fluorescence microscopy was used to study cellular localization. HeLa cells were seeded on autoclaved coverslips in the 6-well plate and incubated at 37°C for 48 h, after which the culture media were replaced with media containing VNK-572 (50 μM) and VNK-754 (50 μM), respectively, and further incubation was performed for 2 h. Following this, the cells were fixed with Carnoy’s solution and washed twice with PBS thereafter. Finally, the HeLa cells were counterstained with DAPI, and the seeded coverslips were inverted and placed on slides for examination. A Leica confocal microscope was used for the observation of the samples using a magnification of ×63.

LogP [4] | SMILES | IC50 (DU145 prostate cancer) [µM] | IC50 (HeLa cervical cancer) [µM] | IC50 (A2780 ovarian cancer) [µM] | IC50 (PNT1A normal prostate) [µM] | IC50 [1] [µM] | resistance factor (IC50 A2780-CP70/IC50 A2780) ([1]; from SRB IC50 values) | IC50 (MDA-MB-231 (TNBC)) [µM] | Q2 (propidium iodide and annexin V APC-stained cells), late-stage apoptosis (HeLa cells [2]; 72 h of treatment, control 2%) [%] | Q4 (annexin V APC), early apoptosis (HeLa cells [2]; 72 h of treatment, control 14% (VNK-572), 13% (cisplatin)) [%] | Q1 (necrosis) (HeLa cells [2]; after 72 h of treatment) [%] | nuclear morphology (various cell lines) | changes in G1 / S phases (HeLa cells [3]) | sub-G1 population (HeLa cells [3]; 72 h of treatment, control 5% (VNK-572), 6% (cisplatin)) [%] | sub-G1 population (DU145 cells) [%] | unwinding of supercoiled circular DNA [5] | cellular localization (HeLa cells [6])
– | N.N.[Cl][Pt][Cl] [Cisplatin, cisplatin, reference compound] | 2.4 ± 0.09 | 6 ± 0.58 | 2 | 3.8 ± 0.58 | 4 ± 0.58 | two-fold | 37 ± 8.08 | 9 | 39 | < 6 | nuclear swelling | increase in S-phase arrest | 25 | 62 | – | –
−0.874 | F[P-](F)(F)(F)(F)F.F[P-](F)(F)(F)(F)F.[Ru+2].c1cnc2c(c1)c1cccnc1c1ncccc21.c1cnc2c(c1)ccc1cccnc12.c1cnc2c(c1)ccc1cccnc12 [VNK-754, ruthenium (II) bis-phenanthroline dipyridoquinoline] | > 100 | > 100 | 74 ± 14.4 | > 100 | > 100 | – | > 100 | – | – | – | – | – | – | – | unwound | penetrate the nucleus
